This is an account of results in PMC5929560, “Deciphering the binding behavior of flavonoids to the cyclin dependent kinase 6/cyclin D complex” (PLoS ONE, 2018).

The target in one assay is CDK6 (Homo sapiens, UniProt Q00534). Briefly: Filter-binding kinase assay with [γ-32P]ATP and histone H1. The format is biochemical. Conditions: 25 μM ATP, 20 min at 30°C, triplicate. As to the method: To quantify the inhibitory activities of flavonoids on CDK6, the filter-binding assay was performed in 96-well filter plates. The total volume for each well was 0.1mL containing a final concentration of 20mM Tris-HCl (pH 7.4), 50mM NaCl, 1mM dithiothreitol, 10mM MgCl2, 25μM ATP (containing 0.25μCi of [γ-^32P]ATP), 0.1μg of CDK6, 10μg of histone H1, and appropriate dilutions of inhibitor. The reaction was initiated by the addition of [γ-^32P]ATP, and then incubated for 20min at 30°C. Samples were applied to P81 phosphocellulose papers strips (Whatman), and the strips were washed in phosphoric acid solution. The radioactivity was measured by liquid scintillation spectrometry. IC50 values were calculated from the dose-response curves. All experiments were carried out in triplicate.
Chain of CDK6 (Homo sapiens, UniProt Q00534) (Q00534 whole entry): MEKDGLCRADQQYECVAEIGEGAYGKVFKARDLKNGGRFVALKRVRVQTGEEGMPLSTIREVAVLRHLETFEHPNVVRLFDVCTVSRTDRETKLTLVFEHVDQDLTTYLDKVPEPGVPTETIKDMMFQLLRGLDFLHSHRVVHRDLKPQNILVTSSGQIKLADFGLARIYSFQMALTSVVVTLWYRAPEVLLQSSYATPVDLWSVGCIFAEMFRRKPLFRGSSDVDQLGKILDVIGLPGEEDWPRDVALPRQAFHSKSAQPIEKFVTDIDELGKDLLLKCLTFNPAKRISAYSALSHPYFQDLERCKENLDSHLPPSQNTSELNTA
Chain of CDK6 (Homo sapiens, UniProt Q00534) (P30281 whole entry partner): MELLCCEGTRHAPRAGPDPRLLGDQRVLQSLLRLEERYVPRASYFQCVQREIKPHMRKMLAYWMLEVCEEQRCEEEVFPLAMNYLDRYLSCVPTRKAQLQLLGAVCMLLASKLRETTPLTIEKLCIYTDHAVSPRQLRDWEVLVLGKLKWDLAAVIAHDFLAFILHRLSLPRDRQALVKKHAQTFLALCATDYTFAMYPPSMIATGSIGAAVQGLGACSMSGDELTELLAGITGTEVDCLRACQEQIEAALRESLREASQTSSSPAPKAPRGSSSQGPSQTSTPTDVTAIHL
For `O=c1cc(-c2ccc(O)c(O)c2)oc2cc(O)ccc12` [M15, 3’, 4’, 7-trihydroxyflavone], the 50% inhibitory concentration (IC50) turned out to be 23.3 ± 1.5 µM. For the compound `O=c1c(-c2ccc(O)cc2)coc2cc(O)cc(O)c12` [M05, Genistein], the IC50 was found to be 38 ± 2.1 µM. Same read-out and setting: as for `O=c1c(O)c(-c2ccc(O)cc2)oc2cc(O)cc(O)c12` [M07, Kaempferol], the figure is 19.8 ± 1.6 µM; as for `O=c1c(O)c(-c2ccc(O)c(O)c2)oc2cc(O)cc(O)c12` [M06, Quercetin], 26.3 ± 1.9 µM. Still for that read-out and setting: as for `O=c1c(O)c(-c2ccccc2)oc2cc(O)cc(O)c12` [M04, Galangin], the figure is 52 ± 2.8 µM; as for `O=c1cc(-c2ccccc2)oc2cc(O)cc(O)c12` [M01, Chrysin], 4.5 ± 0.4 µM.

A further assay deals with CDK6.
Assay: not given
Conditions: cited from earlier work.
`O=c1c(O)c(-c2ccc(O)c(O)c2)oc2cc(O)ccc12` [M03, Fisetin]: the IC50 is 0.85 µM.

For `O=c1c(O)c(-c2ccc(O)c(O)c2)oc2cc(O)cc(O)c12` [M06, Quercetin], the concentration for half-maximal inhibition (IC50) was 26 µM.
